Experimental data published in paper PMC5869712 (Scientific Reports, 2018).
Where two headings read alike, the source gives them in different places.

Legend:
JAK3 = biological target: T1, JAK3 (Homo sapiens, UniProt P52333); experiment: Cys-containing kinase family panel (EurofinsCerep); format: biochemical
T1 construct: ChemPartner (contract assay service)
T1 sequence (P52333 1-1124): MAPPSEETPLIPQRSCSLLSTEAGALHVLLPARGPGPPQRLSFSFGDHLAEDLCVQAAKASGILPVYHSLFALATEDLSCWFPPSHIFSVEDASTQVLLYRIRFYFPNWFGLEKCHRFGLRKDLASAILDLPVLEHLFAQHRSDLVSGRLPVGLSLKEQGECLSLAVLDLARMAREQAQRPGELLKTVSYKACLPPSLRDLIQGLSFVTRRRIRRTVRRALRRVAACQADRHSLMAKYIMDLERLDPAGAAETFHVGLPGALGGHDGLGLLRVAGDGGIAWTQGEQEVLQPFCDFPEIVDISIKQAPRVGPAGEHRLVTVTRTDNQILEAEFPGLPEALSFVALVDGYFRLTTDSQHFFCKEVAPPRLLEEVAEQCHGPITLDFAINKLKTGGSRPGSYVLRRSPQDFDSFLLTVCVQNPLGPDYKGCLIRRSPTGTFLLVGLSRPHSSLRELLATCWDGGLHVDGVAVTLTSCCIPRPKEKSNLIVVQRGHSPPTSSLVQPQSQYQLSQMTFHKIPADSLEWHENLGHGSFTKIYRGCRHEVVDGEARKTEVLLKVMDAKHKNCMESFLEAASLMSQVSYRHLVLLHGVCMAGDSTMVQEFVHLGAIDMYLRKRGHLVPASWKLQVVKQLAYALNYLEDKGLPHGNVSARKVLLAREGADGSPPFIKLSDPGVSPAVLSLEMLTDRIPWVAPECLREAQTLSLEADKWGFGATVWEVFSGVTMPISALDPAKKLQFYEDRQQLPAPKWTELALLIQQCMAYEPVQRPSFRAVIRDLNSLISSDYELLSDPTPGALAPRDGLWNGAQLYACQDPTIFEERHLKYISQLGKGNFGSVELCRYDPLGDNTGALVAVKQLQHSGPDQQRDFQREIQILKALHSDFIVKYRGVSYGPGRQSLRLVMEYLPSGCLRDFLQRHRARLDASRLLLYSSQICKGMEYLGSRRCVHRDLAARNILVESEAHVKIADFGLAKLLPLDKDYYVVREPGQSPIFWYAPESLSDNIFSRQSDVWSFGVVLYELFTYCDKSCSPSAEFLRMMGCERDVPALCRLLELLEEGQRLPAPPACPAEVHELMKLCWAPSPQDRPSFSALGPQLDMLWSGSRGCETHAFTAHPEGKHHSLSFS

ACK1 = biological target: T2, ACK1 (Homo sapiens, UniProt Q07912); experiment: Eurofins Kinase Profiler panel; format: biochemical; details: read-out: % inhibition (1μM), DMSO control=100%, lower=stronger
T2 construct: purchased Eurofins KinaseProfiler (Eurofins Pharma Discovery Services UK, Dundee); JAK3 also ChemPartner

ALK4 = biological target: T3, ALK4 (Homo sapiens, UniProt P36896); experiment: Eurofins Kinase Profiler panel; format: biochemical; details: read-out: % inhibition (1μM), DMSO control=100%, lower=stronger
T3 construct: purchased Eurofins KinaseProfiler (Eurofins Pharma Discovery Services UK, Dundee); JAK3 also ChemPartner

IGF-1R = biological target: T4, IGF-1R (Homo sapiens, UniProt P08069); experiment: Eurofins Kinase Profiler panel; format: biochemical; details: read-out: % inhibition (1μM), DMSO control=100%, lower=stronger
T4 construct: purchased Eurofins KinaseProfiler (Eurofins Pharma Discovery Services UK, Dundee); JAK3 also ChemPartner

IKKβ = biological target: T5, IKKβ (Homo sapiens, UniProt O14920); experiment: Eurofins Kinase Profiler panel; format: biochemical; details: read-out: % inhibition (1μM), DMSO control=100%, lower=stronger
T5 construct: purchased Eurofins KinaseProfiler (Eurofins Pharma Discovery Services UK, Dundee); JAK3 also ChemPartner

JNK1α1 = biological target: T6, JNK1α1 (Homo sapiens, UniProt P45983); experiment: Eurofins Kinase Profiler panel; format: biochemical; details: read-out: % inhibition (1μM), DMSO control=100%, lower=stronger
T6 construct: purchased Eurofins KinaseProfiler (Eurofins Pharma Discovery Services UK, Dundee); JAK3 also ChemPartner

CDK1 = biological target: T7, CDK1 (Homo sapiens, UniProt P06493); experiment: Eurofins Kinase Profiler panel; format: biochemical; details: read-out: % inhibition (1μM), DMSO control=100%, lower=stronger
T7 construct: purchased Eurofins KinaseProfiler (Eurofins Pharma Discovery Services UK, Dundee); JAK3 also ChemPartner

MKK6 = biological target: T8, MKK6 (Homo sapiens, UniProt P52564); experiment: Eurofins Kinase Profiler panel; format: biochemical; details: read-out: % inhibition (1μM), DMSO control=100%, lower=stronger
T8 construct: Eurofins Pharma Discovery Services UK Limited (Kinase Profiler service)

Fyn = biological target: T9, Fyn (Homo sapiens, UniProt P06241); experiment: Eurofins Kinase Profiler panel; format: biochemical; details: read-out: % inhibition (1μM), DMSO control=100%, lower=stronger
T9 construct: purchased Eurofins Pharma Discovery Services UK Limited (Kinase Profiler screening platform)

[1] = system: JAK-STAT pathway in joints of CIA mice; experiment: JAK/STAT phosphorylation in joint tissue of CIA mice, Western blot; format: in vivo, mouse; details: dose-dependent
Source text: Proteins were visualized with enhanced chemiluminescence.

BALB/c mice = experiment: Acute oral toxicity and haematology analysis in BALB/c mice; details: for HCT / HGB / LY / MCH / MCHC / MCV / MO / PLT / RBC / WBC: Balb/c mice
[2] = system: IL-6-induced JAK/STAT3 phosphorylation in TF-1 cells (JAK1); experiment: STAT3 phosphorylation induced by IL-6 in TF-1 cells, Western blot
[3] = system: G-CSF-induced JAK/STAT3 phosphorylation in HEL cells (JAK1/JAK2); experiment: STAT3 phosphorylation induced by G-CSF in HEL cells, Western blot; details: for IC50: Homo sapiens
[4] = system: IL-4-induced JAK/STAT6 phosphorylation in THP-1 cells (JAK1/JAK3); experiment: STAT6 phosphorylation induced by IL-4 in THP-1 cells, Western blot; details: for IC50: Homo sapiens

T9 sequence (P06241 whole entry): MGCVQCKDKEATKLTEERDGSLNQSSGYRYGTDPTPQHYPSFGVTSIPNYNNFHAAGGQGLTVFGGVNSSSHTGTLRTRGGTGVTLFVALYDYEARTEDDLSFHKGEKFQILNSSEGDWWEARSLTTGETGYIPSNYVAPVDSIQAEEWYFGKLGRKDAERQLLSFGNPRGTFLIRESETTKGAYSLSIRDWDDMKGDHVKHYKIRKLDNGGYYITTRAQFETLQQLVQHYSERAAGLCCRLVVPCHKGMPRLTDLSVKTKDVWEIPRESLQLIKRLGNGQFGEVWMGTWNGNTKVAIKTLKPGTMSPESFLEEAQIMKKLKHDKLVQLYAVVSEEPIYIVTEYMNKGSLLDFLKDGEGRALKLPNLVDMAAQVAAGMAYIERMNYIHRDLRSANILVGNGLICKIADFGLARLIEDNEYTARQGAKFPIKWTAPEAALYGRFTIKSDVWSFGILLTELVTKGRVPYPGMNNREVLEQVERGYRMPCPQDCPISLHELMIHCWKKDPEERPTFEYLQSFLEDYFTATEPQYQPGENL
T6 sequence (P45983 1-384 isoform P45983-2): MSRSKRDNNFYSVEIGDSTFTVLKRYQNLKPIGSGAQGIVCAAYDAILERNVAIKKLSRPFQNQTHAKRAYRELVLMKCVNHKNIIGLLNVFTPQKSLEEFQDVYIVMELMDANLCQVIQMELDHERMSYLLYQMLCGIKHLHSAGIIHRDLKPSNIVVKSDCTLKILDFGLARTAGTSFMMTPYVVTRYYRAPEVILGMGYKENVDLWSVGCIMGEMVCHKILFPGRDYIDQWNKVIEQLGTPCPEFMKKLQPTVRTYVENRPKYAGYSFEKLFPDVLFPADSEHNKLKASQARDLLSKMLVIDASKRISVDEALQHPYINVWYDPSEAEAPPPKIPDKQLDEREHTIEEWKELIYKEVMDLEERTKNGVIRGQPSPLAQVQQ
T2 sequence (Q07912 whole entry): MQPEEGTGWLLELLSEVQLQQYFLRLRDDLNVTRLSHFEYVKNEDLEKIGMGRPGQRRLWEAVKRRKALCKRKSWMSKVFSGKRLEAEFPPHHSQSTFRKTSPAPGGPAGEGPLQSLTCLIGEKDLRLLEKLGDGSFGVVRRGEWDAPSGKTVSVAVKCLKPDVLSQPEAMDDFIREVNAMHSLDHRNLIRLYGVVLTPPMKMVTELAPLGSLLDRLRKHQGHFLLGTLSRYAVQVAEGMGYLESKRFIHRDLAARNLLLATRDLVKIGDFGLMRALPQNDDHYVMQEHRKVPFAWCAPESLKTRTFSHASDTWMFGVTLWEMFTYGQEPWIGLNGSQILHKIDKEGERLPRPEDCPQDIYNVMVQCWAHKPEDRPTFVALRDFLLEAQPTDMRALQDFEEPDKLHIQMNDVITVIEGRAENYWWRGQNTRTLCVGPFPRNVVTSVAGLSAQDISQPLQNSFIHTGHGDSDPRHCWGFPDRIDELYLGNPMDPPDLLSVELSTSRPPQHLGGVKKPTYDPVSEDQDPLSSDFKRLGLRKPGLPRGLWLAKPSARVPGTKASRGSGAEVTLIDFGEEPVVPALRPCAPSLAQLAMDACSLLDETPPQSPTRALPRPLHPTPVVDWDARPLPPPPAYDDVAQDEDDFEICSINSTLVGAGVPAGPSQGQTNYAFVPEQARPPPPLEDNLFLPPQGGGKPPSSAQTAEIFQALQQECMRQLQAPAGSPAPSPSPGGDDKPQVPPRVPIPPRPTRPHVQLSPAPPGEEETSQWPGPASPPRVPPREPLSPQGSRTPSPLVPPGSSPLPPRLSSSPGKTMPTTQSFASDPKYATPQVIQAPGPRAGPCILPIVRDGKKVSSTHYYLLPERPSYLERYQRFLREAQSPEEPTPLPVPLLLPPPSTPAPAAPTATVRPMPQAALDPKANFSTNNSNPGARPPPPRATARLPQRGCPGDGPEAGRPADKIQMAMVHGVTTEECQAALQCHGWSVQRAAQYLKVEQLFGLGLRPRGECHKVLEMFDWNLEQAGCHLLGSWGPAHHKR
T4 sequence (P08069 31-1367): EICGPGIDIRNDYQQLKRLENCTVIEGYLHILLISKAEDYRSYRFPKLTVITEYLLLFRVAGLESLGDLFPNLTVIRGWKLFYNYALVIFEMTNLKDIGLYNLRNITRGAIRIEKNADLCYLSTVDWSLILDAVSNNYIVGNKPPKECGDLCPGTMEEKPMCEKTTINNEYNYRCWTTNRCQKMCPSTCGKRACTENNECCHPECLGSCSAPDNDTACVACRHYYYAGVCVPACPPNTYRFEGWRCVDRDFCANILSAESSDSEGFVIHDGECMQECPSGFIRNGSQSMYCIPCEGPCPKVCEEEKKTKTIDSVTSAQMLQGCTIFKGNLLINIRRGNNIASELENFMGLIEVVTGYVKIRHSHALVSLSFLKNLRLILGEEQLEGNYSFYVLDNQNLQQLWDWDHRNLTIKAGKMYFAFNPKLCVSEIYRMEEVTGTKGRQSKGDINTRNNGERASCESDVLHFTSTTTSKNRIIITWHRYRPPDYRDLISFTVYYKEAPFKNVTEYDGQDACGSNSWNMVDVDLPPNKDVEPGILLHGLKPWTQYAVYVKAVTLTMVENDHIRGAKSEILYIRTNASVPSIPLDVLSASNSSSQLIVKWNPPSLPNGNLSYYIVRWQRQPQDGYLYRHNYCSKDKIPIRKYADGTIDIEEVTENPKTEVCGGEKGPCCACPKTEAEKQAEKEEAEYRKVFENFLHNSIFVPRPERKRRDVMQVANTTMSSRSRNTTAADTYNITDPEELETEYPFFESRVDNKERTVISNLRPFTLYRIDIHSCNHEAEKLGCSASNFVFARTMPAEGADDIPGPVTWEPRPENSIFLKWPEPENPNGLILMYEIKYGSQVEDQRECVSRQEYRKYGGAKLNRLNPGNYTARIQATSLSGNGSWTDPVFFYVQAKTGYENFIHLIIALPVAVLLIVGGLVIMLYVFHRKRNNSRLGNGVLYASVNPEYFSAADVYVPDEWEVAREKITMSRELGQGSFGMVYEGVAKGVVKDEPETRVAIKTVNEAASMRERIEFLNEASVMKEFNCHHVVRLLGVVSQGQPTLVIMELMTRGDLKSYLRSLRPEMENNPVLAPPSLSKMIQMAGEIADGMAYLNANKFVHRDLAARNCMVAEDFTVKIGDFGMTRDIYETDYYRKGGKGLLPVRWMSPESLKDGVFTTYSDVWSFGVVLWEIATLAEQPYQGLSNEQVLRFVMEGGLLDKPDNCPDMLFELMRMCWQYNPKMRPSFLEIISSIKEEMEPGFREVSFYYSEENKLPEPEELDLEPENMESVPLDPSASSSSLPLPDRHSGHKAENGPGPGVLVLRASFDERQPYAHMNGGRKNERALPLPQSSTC
T8 sequence (P52564 whole entry): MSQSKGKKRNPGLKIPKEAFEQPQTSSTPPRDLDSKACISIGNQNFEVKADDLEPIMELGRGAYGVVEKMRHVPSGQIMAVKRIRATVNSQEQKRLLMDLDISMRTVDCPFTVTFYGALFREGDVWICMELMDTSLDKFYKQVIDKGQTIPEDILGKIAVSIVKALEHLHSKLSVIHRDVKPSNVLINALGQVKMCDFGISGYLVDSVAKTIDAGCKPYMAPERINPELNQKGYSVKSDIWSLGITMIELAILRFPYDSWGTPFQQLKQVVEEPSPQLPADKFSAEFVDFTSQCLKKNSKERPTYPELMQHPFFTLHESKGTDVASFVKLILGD
T5 sequence (O14920 whole entry): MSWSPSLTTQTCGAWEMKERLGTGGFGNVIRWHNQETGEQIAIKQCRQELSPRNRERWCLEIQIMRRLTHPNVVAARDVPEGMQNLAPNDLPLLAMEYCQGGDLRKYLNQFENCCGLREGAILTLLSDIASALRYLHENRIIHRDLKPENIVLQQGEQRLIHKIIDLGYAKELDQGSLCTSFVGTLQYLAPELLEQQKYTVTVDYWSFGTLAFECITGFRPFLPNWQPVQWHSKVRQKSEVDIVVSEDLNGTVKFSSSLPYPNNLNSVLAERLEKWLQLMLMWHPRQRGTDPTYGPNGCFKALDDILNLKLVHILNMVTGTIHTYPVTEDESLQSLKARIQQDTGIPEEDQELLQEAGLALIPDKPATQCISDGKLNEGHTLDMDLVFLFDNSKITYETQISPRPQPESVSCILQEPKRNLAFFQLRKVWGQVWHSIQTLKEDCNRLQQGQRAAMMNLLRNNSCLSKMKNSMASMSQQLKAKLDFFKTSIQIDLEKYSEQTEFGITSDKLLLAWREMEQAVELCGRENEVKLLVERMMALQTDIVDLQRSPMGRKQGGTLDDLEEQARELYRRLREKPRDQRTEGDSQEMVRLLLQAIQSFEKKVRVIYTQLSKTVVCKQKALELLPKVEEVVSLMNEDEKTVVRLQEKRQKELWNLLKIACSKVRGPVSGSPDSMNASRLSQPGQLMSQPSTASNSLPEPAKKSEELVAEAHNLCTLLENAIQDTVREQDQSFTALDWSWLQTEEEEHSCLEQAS
T3 sequence (P36896 24-505): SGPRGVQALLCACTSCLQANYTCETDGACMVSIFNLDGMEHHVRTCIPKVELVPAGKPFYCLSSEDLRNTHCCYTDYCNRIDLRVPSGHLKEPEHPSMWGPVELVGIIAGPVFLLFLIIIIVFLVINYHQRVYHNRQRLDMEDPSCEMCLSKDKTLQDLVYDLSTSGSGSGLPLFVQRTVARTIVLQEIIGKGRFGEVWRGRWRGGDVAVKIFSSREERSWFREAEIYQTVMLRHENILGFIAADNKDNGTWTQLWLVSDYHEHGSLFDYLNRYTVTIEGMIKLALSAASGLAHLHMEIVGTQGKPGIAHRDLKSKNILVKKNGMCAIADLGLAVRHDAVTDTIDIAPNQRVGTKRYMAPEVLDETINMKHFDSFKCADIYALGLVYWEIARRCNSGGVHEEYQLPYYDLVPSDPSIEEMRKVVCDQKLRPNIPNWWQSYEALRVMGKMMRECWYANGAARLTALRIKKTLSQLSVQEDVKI

C=CC(=O)N[C@@H]1CCCN(c2ncnc3[nH]ccc23)C1 [RB1]
inhibition at 1 µM (JAK3): 99.1% | activity at 1 µM (ACK1): 34% | activity at 1 µM (ALK4): 101% | activity at 1 µM (IGF-1R): 93% | activity at 1 µM (IKKβ): 105% | activity at 1 µM (JNK1α1): 101% | activity at 1 µM (CDK1): 96% | activity at 1 µM (MKK6): 69% | activity at 1 µM (Fyn): 97% | phosphorylation status of JAKs and STATs in joint tissue [1]: hypo-phosphorylation of JAK3, STAT1 and STAT3 | acute haematological toxicity in WBC and lymphocyte counts (BALB/c mice; BALB/c mice, oral, even at 1000 mg/kg, after 14 days): did not induce significant acute haematological toxicity | acute oral toxicity, adverse effects (BALB/c mice; BALB/c mice, single doses, 14-days recovery time): no obvious adverse results | HCT (BALB/c mice; oral 100 mg/kg): 46.94 ± 1.80% | HGB (BALB/c mice; oral 100 mg/kg): 168.12 ± 7.36 g/L | LY (BALB/c mice; oral 100 mg/kg): 65.93 ± 3.09% | MCH (BALB/c mice; oral 100 mg/kg): 16.13 ± 0.12 pg | MCHC (BALB/c mice; oral 100 mg/kg): 369.77 ± 2.01 g/L | MCV (BALB/c mice; oral 100 mg/kg): 48.98 ± 0.22 fL | MO (BALB/c mice; oral 100 mg/kg): 6.99 ± 1.26% | PLT (BALB/c mice; oral 100 mg/kg): 385.34 ± 43.61 1×109/L | RBC (BALB/c mice; oral 100 mg/kg): 9.20 ± 0.31 1×1012/L | WBC (BALB/c mice; oral 100 mg/kg): 9.12 ± 0.98 1×109/L | HCT (BALB/c mice; oral 300 mg/kg): 44.82 ± 1.77% | HGB (BALB/c mice; oral 300 mg/kg): 158.49 ± 6.40 g/L | LY (BALB/c mice; oral 300 mg/kg): 75.04 ± 3.17% | MCH (BALB/c mice; oral 300 mg/kg): 15.98 ± 0.22 pg | MCHC (BALB/c mice; oral 300 mg/kg): 360.54 ± 3.84 g/L | MCV (BALB/c mice; oral 300 mg/kg): 50.03 ± 0.08 fL | MO (BALB/c mice; oral 300 mg/kg): 6.50 ± 0.86% | PLT (BALB/c mice; oral 300 mg/kg): 360.12 ± 33.74 1×109/L | RBC (BALB/c mice; oral 300 mg/kg): 9.90 ± 0.22 1×1012/L | WBC (BALB/c mice; oral 300 mg/kg): 8.64 ± 1.05 1×109/L | HCT (BALB/c mice; oral 1000 mg/kg): 43.53 ± 1.68% | HGB (BALB/c mice; oral 1000 mg/kg): 150.33 ± 6.94 g/L | LY (BALB/c mice; oral 1000 mg/kg): 69.43 ± 1.88% | MCH (BALB/c mice; oral 1000 mg/kg): 16.08 ± 0.09 pg | MCHC (BALB/c mice; oral 1000 mg/kg): 355.00 ± 2.16 g/L | MCV (BALB/c mice; oral 1000 mg/kg): 49.82 ± 0.12 fL | MO (BALB/c mice; oral 1000 mg/kg): 8.23 ± 1.08% | PLT (BALB/c mice; oral 1000 mg/kg): 327.67 ± 46.45 1×109/L | RBC (BALB/c mice; oral 1000 mg/kg): 10.44 ± 0.16 1×1012/L | WBC (BALB/c mice; oral 1000 mg/kg): 9.33 ± 1.12 1×109/L | IC50 ([2]; Homo sapiens, TF-1, read-out: IC50, STAT and JAK phosphorylation): > 50 µM | Selectivity JAK1/JAK3 ([2]; TF-1, IL-6, pSTAT3): > 1000 | G-CSF-induced phosphorylation of STAT3 ([3]; HEL cells, RB1 at concentrations over 50 μM): not affected | Selectivity JAK1/JAK3 ([3]; HEL, G-CSF, pSTAT3): > 1000 | Selectivity JAK2/JAK3 ([3]; HEL, G-CSF, pSTAT3): > 1000 | IC50 ([3]; HEL, read-out: IC50 (nM) JAK1): > 50000 nM | IC50 ([3]; HEL, read-out: IC50 (nM) JAK2): > 50000 nM | IC50 ([4]; THP-1, read-out: IC50 (nM) JAK1): > 50000 nM | IC50 ([4]; THP-1, read-out: IC50 (nM) JAK3): 53.1 nM | inhibition of JAK3 phosphorylation compared with JAK1/JAK2-mediated STATs phosphorylation ([4]; IL-4 cell-based assay in THP-1 cells): over 1000 folds | Selectivity JAK1/JAK3 ([4]; THP-1, IL-4, pSTAT6): > 1000 | selectivity for JAK3 activity over JAK1 or JAK2 ([4]; battery of cytokine-stimulated cell-based assays): > 100 fold
